Assay results: PMC9853328, “Potent Platinum(IV) Prodrugs That Incorporate a Biotin Moiety to Selectively Target Cancer Cells” (Pharmaceutics, 2022)
Like-named read-outs stand apart in the source and are kept apart here.

Experiments:
[1] = tested on: HT29 colon cancer cells; assay: MTT in vitro cytotoxicity assay, HT29; format: cell-based; conditions: MTT, 72 h drug exposure, n = 3; read-out: GI50 ± SEM, HT29
Method: (§1) The in vitro cytotoxicity assays were undertaken at Calvary Mater Hospital, Waratah, NSW, Australia, following a method previously published in the literature. A stock solution for each compound was prepared in DMSO (30 mM) and stored at −20 °C. The cell lines used in the study include HT29 colon, U87 glioblastoma, MCF-7 breast, A2780 ovarian, H460 lung, A431 skin, Du145 prostate, BE2-C neuroblastoma, SJ-G2 glioblastoma, MIA pancreas, and cisplatin-resistant ADDP ovarian (subclone of A2780) cancer cells, as well as the non-cancerous-derived MCF10A breast cell line. The cancer cell lines were cultured in a humidified atmosphere 5% CO2 at 37 °C and maintained in Dulbecco’s modified Eagle’s medium (Trace Biosciences, Sydney, Australia), supplemented with 10% foetal bovine serum, sodium bicarbonate (10 mM), penicillin (100 IU/mL), streptomycin (100 µg/mL), and glutamine (4 mM). The non-cancerous MCF10A cell line was maintained in DMEM:F12 (1:1) cell culture media, with 5% heat inactivated horse serum, supplemented with penicillin (50 IU/mL), streptomycin (50 µg/mL), glutamine (2 mM), HEPES (20 mM), epidermal growth factor (20 ng/mL), hydrocortisone (500 ng/mL), cholera toxin (100 ng/mL), and insulin (10 µg/mL). Cells were plated in duplicate in medium (100 µL) at a density of 2500–4000 cells per well in 96-well plates. On day 0, (24 h after plating) when the cells were in logarithmic growth, medium (100 μL) with or without the test agent was added to each well. The growth inhibitory effects were evaluated after 72 h drug exposure, using the MTT (3-(4,5-dimethylthiazol-2-yl)-2,5-diphenyltetrazolium bromide) assay, with the absorbance read at 540 nm. An eight-point dose–response curve was produced, which was used to determine the concentration at which growth was inhibited by 50% (GI50). This calculation was based on the difference between the optical density values on day 0 and those at the end of drug exposure. […] Experiments were conducted on three separate occasions and GI50 values were reported as the mean and standard error of the mean.

[2] = tested on: U87 glioblastoma cells; assay: MTT in vitro cytotoxicity assay, U87; format: cell-based; conditions: 72 h drug exposure, n = 3, read-out: GI50 ± SEM, U87
Method: as §1

[3] = tested on: MCF-7 breast cancer cells; assay: MTT in vitro cytotoxicity assay, MCF-7; format: cell-based; conditions: MTT, 72 h drug exposure, n = 3; read-out: GI50 ± SEM, MCF-7
[4] = tested on: A2780 ovarian cancer cells; assay: MTT in vitro cytotoxicity assay, A2780; format: cell-based; conditions: 72 h drug exposure, n = 3, read-out: GI50 ± SEM, A2780
Method: as §1

[5] = tested on: H460 lung cancer cells; assay: MTT in vitro cytotoxicity assay, H460; format: cell-based; conditions: 72 h drug exposure, n = 3, read-out: GI50 ± SEM, H460
Method: as §1

[6] = tested on: A431 skin cancer cells; assay: MTT in vitro cytotoxicity assay, A431; format: cell-based; conditions: 72 h drug exposure, n = 3, read-out: GI50 ± SEM, A431
Method: as §1

[7] = tested on: Du145 prostate cancer cells; assay: MTT in vitro cytotoxicity assay, Du145; format: cell-based; conditions: 72 h
Method: as §1

[8] = tested on: BE2-C neuroblastoma cells; assay: MTT in vitro cytotoxicity assay, BE2-C; format: cell-based; conditions: 72 h drug exposure, n = 3, read-out: GI50 ± SEM, BE2-C
Method: as §1

[9] = tested on: SJ-G2 glioblastoma cells; assay: MTT in vitro cytotoxicity assay, SJ-G2; format: cell-based; conditions: 72 h drug exposure, n = 3, read-out: GI50 ± SEM, SJ-G2
Method: as §1

[10] = tested on: MIA pancreas cancer cells; assay: MTT in vitro cytotoxicity assay, MIA; format: cell-based; conditions: 72 h drug exposure, n = 3, read-out: GI50 ± SEM, MIA
Method: as §1

[11] = tested on: non-cancerous MCF10A breast cell line; assay: MTT in vitro cytotoxicity assay, MCF10A; format: cell-based; conditions: 72 h drug exposure, n = 3, read-out: GI50 ± SEM, MCF10A
Method: as §1

[12] = tested on: cisplatin-resistant ADDP ovarian (subclone of A2780) cancer cells; assay: MTT in vitro cytotoxicity assay, ADDP; format: cell-based; conditions: 72 h drug exposure, n = 3, read-out: GI50 ± SEM, ADDP
Method: as §1

[13] = tested on: ADDP (subclone of A2780) versus A2780 ovarian cancer cell lines; assay: Resistance factor, GI50 in ADDP/GI50 in A2780; format: cell-based
[14] = tested on: panel of cancer cell lines; assay: MTT cytotoxicity averaged across the panel of cancer cell lines; format: cell-based
[15] = Lipophilicity by RP-HPLC (logkw); format: physicochemical; conditions: capacity factor in 100% water
Method: HPLC experiments were carried out using an Agilent Technologies (Melbourne, Australia) 1260 Infinity instrument, equipped with a Phenomenex (Sydney, Australia) Onyx^TM Monolithic C18 reverse phase column (100 × 4.6 mm, 130 Å). The mobile phase was made up of 0.06% TFA in water (solvent A) and 0.06% TFA in an acetonitrile:water (9:1) mixture (solvent B). Samples were eluted over a gradient of 0–100% (% B) for 15 min, at a flow rate of 1 mL/min, with a sample injection volume of 10 µL. Eluting peaks were detected using a PDA at 254 nm.
For lipophilicity experiments, RP-HPLC was utilised to determine the logkw of each compound, similarly to what has been previously published for similar complexes. Samples were eluted at various isocratic percentages, ranging from 18–30% solvent B. To determine the dead volume of the column, potassium iodide was used as an external dead volume marker. The retention time of each sample in each isocratic run ( tr ) and the dead volume time ( t0 ) were both substituted in Equation (1) to calculate the capacity factor ( k ). (1) k=tr−t0/t0
Following this, logk was plotted against the percentage of ACN. For each complex, a minimum of four concentrations of ACN were used. This produced a linear graph with the equation in the form:(2) logk=Sφ+logkw where S is the slope, φ is the percentage of ACN, and logkw is the y-intercept, which represents the capacity factor of the compound in 100% water.
It is important to explore the lipophilicity of a drug, as it is widely believed that increased lipophilicity results in greater cellular accumulation. To understand the lipophilicity of 1–4, RP-HPLC was utilised to determine the logkw of each complex. To calculate this, each complex was eluted at different isocratic percentages, whereby the retention time was used in Equation (1) to calculate the capacity factor (k). The percentage of the organic solvent was then plotted against log k for each isocratic percentage, producing a linear equation that allowed for logkw to be deduced using Equation (2) (Figure S38). The logkw value represents the capacity factor of the compound in 100% water and can be used to compare a series of compounds. Since 1–4 comprise the same axially bound ligand, biotin, the lipophilicity was influenced by the groups on the PL. The logkw of each complex is presented in Table 1, with their corresponding PL. The increasing lipophilicity of the complexes followed the order: 1 < 4 < 2 < 3.

[16] = tested on: HT29 colon cancer cells; parameters: method as in earlier work; conditions: MTT, same method, taken from the literature; ref [18],[46],[47]; read-out: GI50 ± SEM, HT29; cited from earlier work
[17] = tested on: U87 glioblastoma cells; parameters: method as in earlier work; conditions: MTT, same method, taken from the literature; ref [18],[46],[47]; read-out: GI50 ± SEM, U87; cited from earlier work
[18] = tested on: MCF-7 breast cancer cells; parameters: method as in earlier work; conditions: MTT, same method, taken from the literature; ref [18],[46],[47]; read-out: GI50 ± SEM, MCF-7; cited from earlier work
[19] = tested on: A2780 ovarian cancer cells; parameters: method as in earlier work; conditions: MTT, same method, taken from the literature; ref [18],[46],[47]; read-out: GI50 ± SEM, A2780; cited from earlier work
[20] = tested on: H460 lung cancer cells; parameters: method as in earlier work; conditions: MTT, same method, taken from the literature; ref [18],[46],[47]; read-out: GI50 ± SEM, H460; cited from earlier work
[21] = tested on: A431 skin cancer cells; parameters: method as in earlier work; conditions: MTT, same method, taken from the literature; ref [18],[46],[47]; read-out: GI50 ± SEM, A431; cited from earlier work
[22] = tested on: Du145 prostate cancer cells; parameters: method as in earlier work; conditions: MTT, same method, taken from the literature; ref [18],[46],[47]; read-out: GI50 ± SEM, Du145; cited from earlier work
[23] = tested on: BE2-C neuroblastoma cells; parameters: method as in earlier work; conditions: MTT, same method, taken from the literature; ref [18],[46],[47]; read-out: GI50 ± SEM, BE2-C; cited from earlier work
[24] = tested on: SJ-G2 glioblastoma cells; parameters: method as in earlier work; conditions: MTT, same method, taken from the literature; ref [18],[46],[47]; read-out: GI50 ± SEM, SJ-G2; cited from earlier work
[25] = tested on: MIA pancreas cancer cells; parameters: method as in earlier work; conditions: MTT, same method, taken from the literature; ref [18],[46],[47]; read-out: GI50 ± SEM, MIA; cited from earlier work
[26] = tested on: non-cancerous MCF10A breast cell line; parameters: method as in earlier work; conditions: MTT, same method, taken from the literature; ref [18],[46],[47]; read-out: GI50 ± SEM, MCF10A; cited from earlier work
[27] = tested on: cisplatin-resistant ADDP ovarian (subclone of A2780) cancer cells; parameters: method as in earlier work; conditions: MTT, same method, taken from the literature; ref [18],[46],[47]; read-out: GI50 ± SEM, ADDP; cited from earlier work

Cc1c(C)c2ccc[n+]3c2c2c1ccc[n+]2[Pt-2]31([OH])([O]C(=O)CCCC[C@@H]2SC[C@@H]3NC(=O)N[C@@H]32)[NH2+][C@H]2CCCC[C@@H]2[NH2+]1.O=[N+]([O-])[O-].O=[N+]([O-])[O-] [Complex 2, [Pt(5,6-dimethyl-1,10-phenanthroline)(1S,2S-diaminocyclohexane)(biotin)(hydroxido)](NO3)2]
GI50 [1]: 11 ± 5 nM
GI50 [2]: 32 ± 8 nM
GI50 [3]: 22 ± 8 nM
GI50 [4]: 20 ± 4 nM
GI50 [5]: 18 ± 4 nM
GI50 [6]: 36 ± 6 nM
GI50 ([7]; MTT, read-out: GI50, Du145 prostate cancer cell line): 4 nM
number-fold potency against cisplatin, Du145 prostate ([7]; ratio of GI50 values): 300 fold
GI50 [8]: 100 ± 10 nM
GI50 [9]: 36 ± 10 nM
GI50 [10]: 10 ± 2 nM
GI50 [11]: 14 ± 4 nM
GI50 [12]: 11 ± 4 nM
Resistance factor (RF) [13]: 0.55
enhanced activity compared to platinum(II) precursor across the cancer cell lines ([14]; across all cancer cell lines): ~ 2 fold
GI50 ([14]; calculated from the panel of cancer cell lines tested (Table S4)): 27 nM
logkw [15]: 0.78

[Cl-].[Cl-].c1cc2ccc3ccc[n+]4c3c2[n+](c1)[Pt-2]41[NH2+][C@H]2CCCC[C@@H]2[NH2+]1 [PHENSS(II)]
Resistance factor (RF) [13]: 0.793
GI50 [16]: 87 ± 27 nM
GI50 [17]: 1200 ± 340 nM
GI50 [18]: 250 ± 41 nM
GI50 [19]: 290 ± 37 nM
GI50 [20]: 300 ± 32 nM
GI50 [21]: 340 ± 100 nM
GI50 [22]: 110 ± 27 nM
GI50 [23]: 390 ± 60 nM
GI50 [24]: 440 ± 55 nM
GI50 [25]: 240 ± 22 nM
GI50 [26]: 240 ± 60 nM
GI50 [27]: 230 ± 49 nM

O=[N+]([O-])[O-].O=[N+]([O-])[O-].[OH][Pt-2]12([OH])([NH2+][C@H]3CCCC[C@@H]3[NH2+]1)[n+]1cccc3ccc4ccc[n+]2c4c31 [PHENSS(IV)]
Resistance factor (RF) [13]: 1.625
GI50 [16]: 710 ± 300 nM
GI50 [17]: 4900 ± 610 nM
GI50 [18]: 16000 ± 4500 nM
GI50 [19]: 800 ± 84 nM
GI50 [20]: 1700 ± 200 nM
GI50 [21]: 4300 ± 530 nM
GI50 [22]: 310 ± 92 nM
GI50 [23]: 3000 ± 530 nM
GI50 [24]: 1700 ± 350 nM
GI50 [25]: 3400 ± 2200 nM
GI50 [26]: 1700 ± 200 nM
GI50 [27]: 1300 ± 350 nM
